Patent US4419123A, “Herbicidal 4-trifluoromethyl-3'-carbon-substituted-4'-substituted diphenyl ethers” (Rohm and Haas Company, priority 1981, dated 1983)

How the values were obtained:
corn = assay: Crop tolerance (selective herbicidal activity), corn; assay type: in vivo
Description: (§1) The following test procedure is employed.
(§2) Following the general test procedure of Example 37, diphenyl ethers are evaluated for significant tolerance (as shown by 50% or less kill of the test crop at levels of application which give more than 50% kill of many or all of the weeds of Example 73) towards some or all of the following common agronomic crops (not all compounds tested against all crops): alfalfa, snapbeans, corn, cotton, cucumbers, peanuts, rape, rice, safflower, soybeans, tomatoes, and wheat.

[1] = Postemergence herbicidal activity (% control) against monocot weeds; assay type: in vivo; conditions: post-emergence, 336 h, average, about two weeks after application, read-out: Herbicidal activity (% control), postemergence, monocots; for activity at 2241.7 g/ha: 2 lb./A.; for activity at 4483.4 g/ha: 4 lb./A.
From the text: (§3) barnyardgrass (Echinochloa crusgalli) crabgrass (Digitaria spp.) nutsedge (Cyperus esculentus)
(§4) At 2 and 4 pounds per acre:
(§5) **Bermudagrass (Cynodon dactylon)
(§6) *downy brome (Bromus tectorum) foxtail (Setaria faberii)
(§7) Johnsongrass (Sorghum halepense) […]
(§8) quackgrass (Agropyron repens)
(§9) *ryegrass (Lolium perenne)
(§10) *wild oats (Avena factua)
(§11) *yellow millet (Panicum miliaceum)
as §1

[2] = Preemergence herbicidal activity (% control) against monocot weeds; assay type: in vivo; conditions: pre-emergence, 336 h, average, about two weeks after application, read-out: Herbicidal activity (% control), preemergence, monocots; for activity at 2241.7 g/ha: 2 lb./A.; for activity at 4483.4 g/ha: 4 lb./A.
From the text: as §3, §4, §5, §6, §7, §8, §9, §10, §11, §1

[3] = Postemergence herbicidal activity (% control) against dicot weeds; conditions: post-emergence, 336 h; for activity at 4483.4 g/ha: read-out: Herbicidal activity (% control), postemergence, dicots, 4 lb./A., average, about two weeks after application; for activity at 2241.7 g/ha: read-out: Herbicidal activity (% control), postemergence, dicots, 2 lb./A., average, about two weeks after application
soybeans = assay: Crop tolerance (selective herbicidal activity), soybeans; assay type: in vivo; conditions: preemergence applications
Description: as §1, §2

[4] = Preemergence herbicidal activity (% control) against dicot weeds; conditions: pre-emergence, 336 h; for activity at 2241.7 g/ha: read-out: Herbicidal activity (% control), preemergence, dicots, 2 lb./A., average, about two weeks after application; for activity at 4483.4 g/ha: read-out: Herbicidal activity (% control), preemergence, dicots, 4 lb./A., average, about two weeks after application
rice = assay: Crop tolerance (selective herbicidal activity), rice; assay type: in vivo
Description: as §1, §2

peanuts = assay: Crop tolerance (selective herbicidal activity), peanuts; assay type: in vivo
Description: as §1, §2

wheat = assay: Crop tolerance (selective herbicidal activity), wheat; assay type: in vivo
Description: as §1, §2

[5] = postemergence applications or applications on transplanted rice

## O=[N+]([O-])c1ccc(Oc2ccc(C(F)(F)F)cc2Cl)cc1OCC(F)(F)F [Example 11]
corn; preemergence applications
  Tolerance to corn: Tolerance (significant tolerance (as shown by 50% or less kill of the test crop at levels of application which give more than 50% kill of many or all of the weeds of Example 73))
[1]
  activity at 2241.7 g/ha: 100%
  activity at 4483.4 g/ha: 82%
[2]
  activity at 2241.7 g/ha: 88%
  activity at 4483.4 g/ha: 81%
[3]
  activity at 4483.4 g/ha: 99%
soybeans
  Tolerance to soybeans: Tolerance (significant tolerance (as shown by 50% or less kill of the test crop at levels of application which give more than 50% kill of many or all of the weeds of Example 73))
[4]
  activity at 2241.7 g/ha: 99%
  activity at 4483.4 g/ha: 98%
rice; [5]
  Tolerance to rice: Tolerance (significant tolerance (as shown by 50% or less kill of the test crop at levels of application which give more than 50% kill of many or all of the weeds of Example 73))

## CNC(=O)C(C)Oc1cc(Oc2ccc(C(F)(F)F)cc2Cl)ccc1[N+](=O)[O-] (centres unmarked) [Example 52]
corn; postemergence applications
  Tolerance to corn: Tolerance (significant tolerance (as shown by 50% or less kill of the test crop at levels of application which give more than 50% kill of many or all of the weeds of Example 73))
corn; preemergence applications
  Tolerance to corn: Tolerance (significant tolerance (as shown by 50% or less kill of the test crop at levels of application which give more than 50% kill of many or all of the weeds of Example 73))
peanuts; preemergence applications
  Tolerance to peanuts: Tolerance (significant tolerance (as shown by 50% or less kill of the test crop at levels of application which give more than 50% kill of many or all of the weeds of Example 73))
[1]
  activity at 2241.7 g/ha: 93%
  activity at 4483.4 g/ha: 87%
[2]
  activity at 2241.7 g/ha: 98%
  activity at 4483.4 g/ha: 79%
[3]
  activity at 2241.7 g/ha: 100%
  activity at 4483.4 g/ha: 100%
soybeans
  Tolerance to soybeans: Tolerance (significant tolerance (as shown by 50% or less kill of the test crop at levels of application which give more than 50% kill of many or all of the weeds of Example 73))
[4]
  activity at 2241.7 g/ha: 75%
  activity at 4483.4 g/ha: 67%
rice; preemergence applications
  Tolerance to rice: Tolerance (significant tolerance (as shown by 50% or less kill of the test crop at levels of application which give more than 50% kill of many or all of the weeds of Example 73))

## COC(=O)C(C)Oc1cc(Oc2ccc(C(F)(F)F)cc2Cl)ccc1[N+](=O)[O-] (centres unmarked) [Example 50]
peanuts; preemergence applications
  Tolerance to peanuts: Tolerance (significant tolerance (as shown by 50% or less kill of the test crop at levels of application which give more than 50% kill of many or all of the weeds of Example 73))
wheat; preemergence applications
  Tolerance to wheat: Tolerance (significant tolerance (as shown by 50% or less kill of the test crop at levels of application which give more than 50% kill of many or all of the weeds of Example 73))
[1]
  activity at 2241.7 g/ha: 100%
  activity at 4483.4 g/ha: 97%
[2]
  activity at 2241.7 g/ha: 98%
  activity at 4483.4 g/ha: 90%
[3]
  activity at 4483.4 g/ha: 100%
soybeans
  Tolerance to soybeans: Tolerance (significant tolerance (as shown by 50% or less kill of the test crop at levels of application which give more than 50% kill of many or all of the weeds of Example 73))
[4]
  activity at 2241.7 g/ha: 100%
  activity at 4483.4 g/ha: 83%

## CCOc1cc(Oc2c(Cl)cc(C(F)(F)F)cc2Cl)ccc1[N+](=O)[O-] [Example 56, 2,6-Dichloro-α,α,α-trifluoro-p-tolyl-3-ethoxy-4-nitrophenyl ether]
corn; postemergence applications
  Tolerance to corn: Tolerance (significant tolerance (as shown by 50% or less kill of the test crop at levels of application which give more than 50% kill of many or all of the weeds of Example 73))
peanuts; preemergence applications
  Tolerance to peanuts: Tolerance (significant tolerance (as shown by 50% or less kill of the test crop at levels of application which give more than 50% kill of many or all of the weeds of Example 73))
wheat; preemergence applications
  Tolerance to wheat: Tolerance (significant tolerance (as shown by 50% or less kill of the test crop at levels of application which give more than 50% kill of many or all of the weeds of Example 73))
[1]
  activity at 2241.7 g/ha: 100%
  activity at 4483.4 g/ha: 99%
[2]
  activity at 2241.7 g/ha: 100%
  activity at 4483.4 g/ha: 91%
[3]
  activity at 2241.7 g/ha: 99%
  activity at 4483.4 g/ha: 100%
[4]
  activity at 4483.4 g/ha: 83%

## O=C(O)c1cc(Oc2ccc(C(F)(F)F)cc2Cl)ccc1[N+](=O)[O-] [Example 48, 2-Chloro-α,α,α-trifluoro-p-tolyl-3-carboxy-4-nitrophenylether]
peanuts; postemergence applications
  Tolerance to peanuts: Tolerance (significant tolerance (as shown by 50% or less kill of the test crop at levels of application which give more than 50% kill of many or all of the weeds of Example 73))
peanuts; preemergence applications
  Tolerance to peanuts: Tolerance (significant tolerance (as shown by 50% or less kill of the test crop at levels of application which give more than 50% kill of many or all of the weeds of Example 73))
wheat; postemergence applications
  Tolerance to wheat: Tolerance (significant tolerance (as shown by 50% or less kill of the test crop at levels of application which give more than 50% kill of many or all of the weeds of Example 73))
[1]
  activity at 2241.7 g/ha: 84%
  activity at 4483.4 g/ha: 75%
[2]
  activity at 2241.7 g/ha: 100%
  activity at 4483.4 g/ha: 99%
[3]
  activity at 2241.7 g/ha: 97%
  activity at 4483.4 g/ha: 100%
soybeans
  Tolerance to soybeans: Tolerance (significant tolerance (as shown by 50% or less kill of the test crop at levels of application which give more than 50% kill of many or all of the weeds of Example 73))
[4]
  activity at 2241.7 g/ha: 100%
  activity at 4483.4 g/ha: 97%
rice; [5]
  Tolerance to rice: Tolerance (significant tolerance (as shown by 50% or less kill of the test crop at levels of application which give more than 50% kill of many or all of the weeds of Example 73))

## CC(Oc1cc(Oc2ccc(C(F)(F)F)cc2Cl)ccc1[N+](=O)[O-])C(=O)N(C)C (centres unmarked) [Example 53]
corn; postemergence applications
  Tolerance to corn: Tolerance (significant tolerance (as shown by 50% or less kill of the test crop at levels of application which give more than 50% kill of many or all of the weeds of Example 73))
peanuts; postemergence applications
  Tolerance to peanuts: Tolerance (significant tolerance (as shown by 50% or less kill of the test crop at levels of application which give more than 50% kill of many or all of the weeds of Example 73))
peanuts; preemergence applications
  Tolerance to peanuts: Tolerance (significant tolerance (as shown by 50% or less kill of the test crop at levels of application which give more than 50% kill of many or all of the weeds of Example 73))
[1]
  activity at 2241.7 g/ha: 81%
  activity at 4483.4 g/ha: 79%
[2]
  activity at 2241.7 g/ha: 98%
  activity at 4483.4 g/ha: 98%
[3]
  activity at 2241.7 g/ha: 100%
  activity at 4483.4 g/ha: 100%
soybeans
  Tolerance to soybeans: Tolerance (significant tolerance (as shown by 50% or less kill of the test crop at levels of application which give more than 50% kill of many or all of the weeds of Example 73))
[4]
  activity at 2241.7 g/ha: 100%
  activity at 4483.4 g/ha: 83%
rice; [5]
  Tolerance to rice: Tolerance (significant tolerance (as shown by 50% or less kill of the test crop at levels of application which give more than 50% kill of many or all of the weeds of Example 73))

## Cc1cc(Oc2ccc(C(F)(F)F)cc2Cl)ccc1[N+](=O)[O-] [Example 36]
corn; postemergence applications
  Tolerance to corn: Tolerance (significant tolerance (as shown by 50% or less kill of the test crop at levels of application which give more than 50% kill of many or all of the weeds of Example 73))
peanuts; postemergence applications
  Tolerance to peanuts: Tolerance (significant tolerance (as shown by 50% or less kill of the test crop at levels of application which give more than 50% kill of many or all of the weeds of Example 73))
peanuts; preemergence applications
  Tolerance to peanuts: Tolerance (significant tolerance (as shown by 50% or less kill of the test crop at levels of application which give more than 50% kill of many or all of the weeds of Example 73))
wheat; postemergence applications
  Tolerance to wheat: Tolerance (significant tolerance (as shown by 50% or less kill of the test crop at levels of application which give more than 50% kill of many or all of the weeds of Example 73))
[1]
  activity at 2241.7 g/ha: 94%
  activity at 4483.4 g/ha: 87%
[2]
  activity at 2241.7 g/ha: 100%
  activity at 4483.4 g/ha: 93%
[3]
  activity at 2241.7 g/ha: 98%
  activity at 4483.4 g/ha: 100%
[4]
  activity at 4483.4 g/ha: 100%
